# From patent US11957684B2, “Treatment of heavy menstrual bleeding associated with uterine fibroids” (Sumitomo Pharma Switzerland GmbH, priority 2016, dated 2024)
# Like-named read-outs stand apart in the source and are kept apart here.
# Tested on: endometriosis-associated pain
# Type: in vivo, human
# Settings: 3.75 mg sc/4 wk
# Method: Subjects assessed and recorded their own quality of life (QOL) using the EHP-30 once a month during the study visit. As used in the examples, the VAS score was evaluated using a 100 mm scale. For pain intensity, the scale was anchored by “no pain” (score of 0) and “pain as bad as you can imagine” (score of 100). […] The above items were evaluated using a patient diary that was distributed by the sponsor. Subjects filled out the patient diary every day during the treatment period or until early termination. If taking prohibited analgesics, subjects recorded this fact in the patient diary along with the accompanying pain symptoms before use of analgesics. As used in the examples, pain during menstruation and pelvic pain unrelated to menstruation were evaluated using scores on the M-B&B and B&B. The M-B&B scores were recorded by subjects on the patient diary supplied by the sponsor. Subjects filled out the patient diary every day during the treatment period or until early termination. If taking prohibited analgesics, subjects recorded this fact in the patient diary along with the accompanying pain symptoms before use of analgesics. The investigator or subinvestigator assessed each patient's pain through interviews and filled out a B&B once a month. The items that were assessed are shown below. The M-B&B score included: dysmenorrhea (severe, moderate, mild, no pain, or no menstruation); pelvic pain (severe, moderate, mild, or no pain); deep dyspareunia (severe, moderate, mild, no pain, or no intercourse). The B&B score included: dysmenorrhea (severe, moderate, mild, none, or not applicable); dyspareunia (severe, moderate, mild, none, or not applicable); pelvic pain (severe, moderate, mild, or none); pelvic tenderness (severe, moderate, mild, or none); and induration (severe, moderate, mild, or none). As used in the examples, the EHP-30 score was obtained by subjects assessing and recording their own QOL using the EHP-30 questionnaire.
# [1] = end of treatment, listed as leuprorelin
smiles,measurement,setting,value
"CCNC(=O)[C@@H]1CCCN1C(=O)[C@H](CCCNC(=N)N)NC(=O)[C@H](CC(C)C)NC(=O)[C@@H](CC(C)C)NC(=O)[C@H](Cc1ccc(O)cc1)NC(=O)[C@H](CO)NC(=O)[C@H](Cc1c[nH]c2ccccc12)NC(=O)[C@H](Cc1c[nH]cn1)NC(=O)[C@@H]1CCC(=O)N1 [leuprolide acetate, reference compound]","change from baseline in mean VAS, dysmenorrhea",Day 1-28,−9.985±15.7027 mm
same,"change from baseline in mean VAS, dyspareunia",Day 1-28,−3.126±17.0520 mm
same,"change from baseline in mean VAS, pelvic pain",Day 1-28,−4.282±7.3628 mm
same,"mean VAS score, dysmenorrhea",Day 1-28,17.133±19.4179 mm
same,"mean VAS score, dyspareunia",Day 1-28,7.288±16.2960 mm
same,"mean VAS score, pelvic pain",Day 1-28,10.899±14.8866 mm
same,"change from baseline in mean VAS, dysmenorrhea",Day 57-84,−27.558±19.9878 mm
same,"change from baseline in mean VAS, dyspareunia",Day 57-84,−6.752±10.5824 mm
same,"change from baseline in mean VAS, pelvic pain",Day 57-84,−10.364±10.4428 mm
same,"mean VAS score, dysmenorrhea",Day 57-84,0.000±0.0000 mm
same,"mean VAS score, dyspareunia",Day 57-84,5.478±10.7612 mm
same,"mean VAS score, pelvic pain",Day 57-84,5.013±12.0454 mm
same,"change from baseline in mean VAS, dysmenorrhea",Day 141-168,−28.373±20.7287 mm
same,"change from baseline in mean VAS, dyspareunia",Day 141-168,−4.953±16.9523 mm
same,"change from baseline in mean VAS, pelvic pain",Day 141-168,−13.804±12.8288 mm
same,"mean VAS score, dysmenorrhea",Day 141-168,0.000±0.0000 mm
same,"mean VAS score, dyspareunia",Day 141-168,5.565±12.5556 mm
same,"mean VAS score, pelvic pain",Day 141-168,2.167±5.1999 mm
same,"change from baseline in EHP-30, Self-image",Week 24,−9.42±15.553
same,"change from baseline in EHP-30, control & powerlessness",Week 24,−24.80±23.839
same,"change from baseline in EHP-30, emotional well-being",Week 24,−12.37±18.332
same,"change from baseline in EHP-30, pain",Week 24,−26.38±20.341
same,"change from baseline in EHP-30, social support",Week 24,−10.46±17.923
same,"change from baseline in mean B&B score, dysmenorrhea",Week 24,−2.1±0.49
same,"change from baseline in mean B&B score, dyspareunia",Week 24,−0.5±0.88
same,"change from baseline in mean B&B score, induration",Week 24,−0.8±0.82
same,"change from baseline in mean B&B score, pelvic pain",Week 24,−1.2±0.72
same,"change from baseline in mean B&B score, pelvic tenderness",Week 24,−1.1±0.78
same,"subjects without pain in B&B score, dysmenorrhea",Week 24,100%
same,"subjects without pain in B&B score, dyspareunia",Week 24,70.6%
same,"subjects without pain in B&B score, induration",Week 24,75.4%
same,"subjects without pain in B&B score, pelvic pain",Week 24,68.9%
same,"subjects without pain in B&B score, pelvic tenderness",Week 24,70.5%
same,"change from baseline in maximum M-B&B score, dysmenorrhea",end of treatment,−1.9±0.69
same,"change from baseline in maximum M-B&B score, dyspareunia",end of treatment,−0.4±0.78
same,"change from baseline in maximum M-B&B score, pelvic pain",end of treatment,−1.3±0.82
same,"change from baseline in maximum VAS, dysmenorrhea",end of treatment,−51.8±27.01 mm
same,"change from baseline in maximum VAS, dyspareunia",end of treatment,−10.3±19.76 mm
same,"change from baseline in maximum VAS, pelvic pain",end of treatment,−46.8±26.29 mm
same,"change from baseline in mean M-B&B score, deep dyspareunia",end of treatment,−0.208±0.5604
same,"change from baseline in mean M-B&B score, dysmenorrhea",end of treatment,−1.160±0.4802
same,"change from baseline in mean M-B&B score, pelvic pain",end of treatment,−0.483±0.4860
same,"change from baseline in mean VAS, dysmenorrhea",end of treatment,−26.944±19.9212 mm
same,"change from baseline in mean VAS, dyspareunia",end of treatment,−4.593±15.0878 mm
same,"change from baseline in mean VAS, pelvic pain",end of treatment,−12.552±12.5609 mm
same,change from baseline in mean score of amount of bleeding (0 to 5),end of treatment,−2.320±0.7281
same,"change in proportion of days without pain (M-B&B), deep dyspareunia",end of treatment,21.76±43.266%
same,"change in proportion of days without pain (M-B&B), dysmenorrhea",end of treatment,80.29±23.327%
same,"change in proportion of days without pain (M-B&B), pelvic pain",end of treatment,33.42±34.007%
same,"change in proportion of days without pain (VAS), dysmenorrhea",end of treatment,82.09±24.051%
same,"change in proportion of days without pain (VAS), dyspareunia",end of treatment,21.76±43.266%
same,"change in proportion of days without pain (VAS), pelvic pain",end of treatment,40.70±33.342%
same,"mean VAS score, dysmenorrhea",end of treatment,0.174±1.1623 mm
same,"mean VAS score, dyspareunia",end of treatment,4.913±10.6249 mm
same,"mean VAS score, pelvic pain",end of treatment,2.629±5.5783 mm
same,subjects who achieved amenorrhea,end of treatment,97.5%
same,"subjects without pain in M-B&B score, dysmenorrhea",end of treatment,97.5%
same,"subjects without pain in M-B&B score, dyspareunia",end of treatment,56.5%
same,"subjects without pain in M-B&B score, pelvic pain",end of treatment,63.8%
same,"subjects without pain in VAS score, dysmenorrhea",end of treatment,97.5%
same,"subjects without pain in VAS score, dyspareunia",end of treatment,56.5%
same,"subjects without pain in VAS score, pelvic pain",end of treatment,56.8%
same,"change from baseline in mean VAS, pelvic pain",[1],−12.552 mm
same,"subjects without pain in VAS score, pelvic pain",[1],57%
